Laboratory results reported in patent publication US20230406864A1, “7-AZOLE SUBSTITUTED 2-AMINOQUINAZOLINE INHIBITORS OF HPK1” (MERCK SHARP & DOHME LLC, priority 2020, published 2023).
pIC50: −log10 of the molar value.

These compounds were tested against T1, Human HPK1, catalytic domain (Homo sapiens, UniProt Q92918) (assay: HPK1-SLP76 TR-FRET assay). Settings: HPK1 kinase domain 0.075 nM; full length SLP-76 10 nM; ATP 10 μM; 30 min preincubation; 60 min reaction; room temperature.
T1 construct: purchased Cama (so in the source)
T1 sequence (Q92918 1-346): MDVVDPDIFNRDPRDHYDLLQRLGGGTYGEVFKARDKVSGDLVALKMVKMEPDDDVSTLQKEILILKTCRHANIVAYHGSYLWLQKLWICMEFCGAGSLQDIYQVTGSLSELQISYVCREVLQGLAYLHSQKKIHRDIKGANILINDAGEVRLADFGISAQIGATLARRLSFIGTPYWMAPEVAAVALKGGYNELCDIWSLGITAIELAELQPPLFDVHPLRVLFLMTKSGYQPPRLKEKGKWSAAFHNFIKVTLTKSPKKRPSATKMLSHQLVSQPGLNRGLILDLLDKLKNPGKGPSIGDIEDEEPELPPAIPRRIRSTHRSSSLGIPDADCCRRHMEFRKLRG
Format: biochemical
`CNC(=O)C(C)(C)n1cc(Nc2ncc3c(N)c(F)c(-c4cnc5c(c4C)NCCO5)cc3n2)cn1` [Example 2-41, 2-(4-{[5-amino-6-fluoro-7-(8-methyl-2,3-dihydro-1H-pyrido[2,3-b][1,4]oxazin-7-yl)quinazolin-2-yl]amino}-1H-pyrazol-1-yl)-N,2-dimethylpropanamide] showed a pIC50 of 9.08. In the case of `Cc1nsc(Nc2ncc3c(N)c(F)c(-c4cnc5c(c4C)NCCO5)cc3n2)c1Cl` [Example 2-36, N~2~-(4-chloro-3-methyl-1,2-thiazol-5-yl)-6-fluoro-7-(8-methyl-2,3-dihydro-1H-pyrido[2,3-b][1,4]oxazin-7-yl)quinazoline-2,5-diamine], the pIC50 was 9.55. For `Cc1c(-c2cc3nc(Nc4cnn(CC(F)F)c4)ncc3c(N)c2F)cnc2c1NCCO2` [Example 2-32, N~2~-[1-(2,2-difluoroethyl)-1H-pyrazol-4-yl]-6-fluoro-7-(8-methyl-2,3-dihydro-1H-pyrido[2,3-b][1,4]oxazin-7-yl)quinazoline-2,5-diamine], the pIC50 was 10.27. `Cc1c(-c2cc3nc(Nc4cnn(C5CC5)c4)ncc3c(N)c2F)cnc2c1NCCO2` [Example 2-9, N~2~-(1-cyclopropyl-1H-pyrazol-4-yl)-6-fluoro-7-(8-methyl-2,3-dihydro-1H-pyrido[2,3-b][1,4]oxazin-7-yl)quinazoline-2,5-diamine] gave a pIC50 of 9.85. `Cc1c(-c2cc3nc(Nc4cnn5c4CCC5)ncc3c(N)c2F)cnc2c1NCCO2` [Example 2-35, N~2~-(5,6-dihydro-4H-pyrrolo[1,2-b]pyrazol-3-yl)-6-fluoro-7-(8-methyl-2,3-dihydro-1H-pyrido[2,3-b][1,4]oxazin-7-yl)quinazoline-2,5-diamine] showed a pIC50 of 10.29. In the case of `Cc1c(-c2cc3nc(Nc4cnn(C5CNC5)c4)ncc3c(N)c2F)cnc2c1NCCO2` [Example 2-5, N~2~-[1-(azetidin-3-yl)-1H-pyrazol-4-yl]-6-fluoro-7-(8-methyl-2,3-dihydro-1H-pyrido[2,3-b][1,4]oxazin-7-yl)quinazoline-2,5-diamine], the pIC50 was 9.54. `Cc1c(-c2cc3nc(Nc4cnn(C5(C)CC5)c4)ncc3c(N)c2F)cnc2c1NCCO2` [Example 2-8, 6-fluoro-N~2~-[1-(1-methylcyclopropyl)-1H-pyrazol-4-yl]-7-(8-methyl-2,3-dihydro-1H-pyrido[2,3-b][1,4]oxazin-7-yl)quinazoline-2,5-diamine] gave a pIC50 of 10.06. `Cc1c(-c2ccc3cnc(Nc4cc5n(n4)CCN(C(C)C)C(=O)C5)nc3c2)cnc2c1NCCO2` [Example 1-7, 2-{[7-(8-methyl-2,3-dihydro-1H-pyrido[2,3-b][1,4]oxazin-7-yl)quinazolin-2-yl]amino}-6-(propan-2-yl)-7,8-dihydro-4H-pyrazolo[1,5-d][1,4]diazepin-5(6H)-one] was tested, and the pIC50 was 9.47. In the case of `Cc1nn(C(C)C)cc1Nc1ncc2c(N)c(F)c(-c3cnc4c(c3C)NCCO4)cc2n1` [Example 2-33, 6-fluoro-7-(8-methyl-2,3-dihydro-1H-pyrido[2,3-b][1,4]oxazin-7-yl)-N~2~-[3-methyl-1-(propan-2-yl)-1H-pyrazol-4-yl]quinazoline-2,5-diamine], the pIC50 was 8.46. Work on `Cc1c(-c2cc3nc(Nc4cnn(C5CCN(C)C5=O)c4)ncc3c(N)c2F)cnc2c1NCCO2` (single isomer, unassigned) [Example 2-19, (S or R)-3-(4-{[5-amino-6-fluoro-7-(8-methyl-2,3-dihydro-1H-pyrido[2,3-b][1,4]oxazin-7-yl)quinazolin-2-yl]amino}-1H-pyrazol-1-yl)-1-methylpyrrolidin-2-one] yielded a pIC50 of 9.82. Work on `Cc1c(-c2cc3nc(Nc4cnn(C5CC6(CNC6)C5)c4)ncc3c(N)c2F)cnc2c1NCCO2` [Example 2-4, N~2~-[1-(2-azaspiro[3.3]heptan-6-yl)-1H-pyrazol-4-yl]-6-fluoro-7-(8-methyl-2,3-dihydro-1H-pyrido[2,3-b][1,4]oxazin-7-yl)quinazoline-2,5-diamine] yielded a pIC50 of 9.33. `Cc1c(-c2cc3nc(Nc4cnn(C5CCNCC5)c4)ncc3c(N)c2F)cnc2c1NCCO2` [Example 2-11, 6-fluoro-7-(8-methyl-2,3-dihydro-1H-pyrido[2,3-b][1,4]oxazin-7-yl)-N~2~-[1-(piperidin-4-yl)-1H-pyrazol-4-yl]quinazoline-2,5-diamine] showed a pIC50 of 10.15. `COC(=O)C12CC(n3cc(Nc4ncc5c(N)c(F)c(-c6cnc7c(c6C)NCCO7)cc5n4)cn3)(C1)C2` [Example 2-15, methyl 3-(4-{[5-amino-6-fluoro-7-(8-methyl-2,3-dihydro-1H-pyrido[2,3-b][1,4]oxazin-7-yl)quinazolin-2-yl]amino}-1H-pyrazol-1-yl)bicyclo[1.1.1]pentane-1-carboxylate] gave a pIC50 of 9.66. `Cc1c(-c2ccc3cnc(Nc4cc5n(n4)CC(=O)N(C)CC54CC4)nc3c2)cnc2c1NCCO2` [Example 1-4, 6′-methyl-2′-{[7-(8-methyl-2,3-dihydro-1H-pyrido[2,3-b][1,4]oxazin-7-yl)quinazolin-2-yl]amino}-5′,6′-dihydrospiro[cyclopropane-1,4′-pyrazolo[1,5-d][1,4]diazepin]-7′(8′H)-one] gave a pIC50 of 8.28. With `Cc1c(-c2cc3nc(Nc4cnn(CS(C)(=O)=O)c4)ncc3c(N)c2F)cnc2c1NCCO2` [Example 2-42, 6-fluoro-7-(8-methyl-2,3-dihydro-1H-pyrido[2,3-b][1,4]oxazin-7-yl)-N2-(1-((methylsulfonyl)methyl)-1H-pyrazol-4-y)quinazoline-2,5-diamine] the pIC50 was 9.89. `Cc1c(-c2cc3nc(Nc4cnn(CC(C)(C)O)c4Cl)ncc3c(N)c2F)cnc2c1NCCO2` [Example 2-18, 1-(4-{[5-amino-6-fluoro-7-(8-methyl-2,3-dihydro-1H-pyrido[2,3-b][1,4]oxazin-7-yl)quinazolin-2-yl]amino}-5-chloro-1H-pyrazol-1-yl)-2-methypropan-2-ol] was tested, and the pIC50 was 8.70. Compound `Cc1c(-c2ccc3cnc(Nc4cnn(C5COC5)c4)nc3c2)cnc2c1NCCO2` [Example 1-1, 7-(8-methyl-2,3-dihydro-1H-pyrido[2,3-b][1,4]oxazin-7-yl)-N-[1-(oxetan-3-yl)-1H-pyrazol-4-yl]quinazolin-2-amine] has a pIC50 of 8.92. `CCn1cc(Nc2ncc3c(N)c(F)c(-c4cnc5c(c4C)NCCO5)cc3n2)cn1` [Example 2-22, N~2~-(1-ethyl-1H-pyrazol-4-yl)-6-fluoro-7-(8-methyl-2,3-dihydro-1H-pyrido[2,3-b][1,4]oxazin-7-yl)quinazoline-2,5-diamine] showed a pIC50 of 10.12. `Cc1c(-c2cc3nc(Nc4cnn(CC(F)(F)F)c4)ncc3c(N)c2F)cnc2c1NCCO2` [Example 2-7, 6-fluoro-7-(8-methyl-2,3-dihydro-1H-pyrido[2,3-b][1,4]oxazin-7-yl)-N~2~-[1-(2,2,2-trifluoroethyl)-1H-pyrazol-4-yl]quinazoline-2,5-diamine] showed a pIC50 of 9.59. `Cc1c(-c2cc3nc(Nc4cnn([C@@H]5CCN(C)C5)c4)ncc3c(N)c2F)cnc2c1NCCO2` [Example 2-48, (R)-6-fluoro-7-(8-methyl-2,3-dihydro-1H-pyrido[2,3-b][1,4]oxazin-7-yl)-N2-(1-(1-methylpyrrolidin-3-yl)-1H-pyrazol-4-yl)quinazoline-2,5-diamine] was tested, and the pIC50 was 9.78. `Cc1nn(CC(F)F)cc1Nc1ncc2c(N)c(F)c(-c3cnc4c(c3C)NCCO4)cc2n1` [Example 2-31, N~2~-[1-(2,2-difluoroethyl)-3-methyl-1H-pyrazol-4-yl]-6-fluoro-7-(8-methyl-2,3-dihydro-1H-pyrido[2,3-b][1,4]oxazin-7-yl)quinazoline-2,5-diamine] showed a pIC50 of 9.70. In the case of `Cc1cc(Nc2ncc3c(N)c(F)c(-c4cnc5c(c4C)NCCO5)cc3n2)sn1` [Example 2-17, 6-fluoro-7-(8-methyl-2,3-dihydro-1H-pyrido[2,3-b][1,4]oxazin-7-yl)-N~2~-(3-methyl-1,2-thiazol-5-yl)quinazoline-2,5-diamine], the pIC50 was 9.42. In the case of `Cc1c(-c2cc3nc(Nc4cnn(C)c4)ncc3c(N)c2F)cnc2c1NCCO2` [Example 2-10, 6-fluoro-7-(8-methyl-2,3-dihydro-1H-pyrido[2,3-b][1,4]oxazin-7-yl)-N~2~-(1-methyl-1H-pyrazol-4-yl)quinazoline-2,5-diamine], the pIC50 was 9.89. Work on `CCn1ncc(Nc2ncc3c(N)c(F)c(-c4cnc5c(c4C)NCCO5)cc3n2)c1C` [Example 2-16, N~2~-(1-ethyl-5-methyl-1H-pyrazol-4-yl)-6-fluoro-7-(8-methyl-2,3-dihydro-1H-pyrido[2,3-b][1,4]oxazin-7-yl)quinazoline-2,5-diamine] yielded a pIC50 of 9.29. For `Cc1c(-c2cc3nc(Nc4cnn(C5CCN(C6(C)COC6)CC5)c4)ncc3c(N)c2F)cnc2c1NCCO2` [Example 2-3, 6-fluoro-7-(8-methyl-2,3-dihydro-1H-pyrido[2,3-b][1,4]oxazin-7-yl)-N~2~-{1-[1-(3-methyloxetan-3-yl)piperidin-4-yl]-1H-pyrazol-4-yl}quinazoline-2,5-diamine], the pIC50 was 9.92. Compound `Cc1c(-c2cc3nc(Nc4cnn(C)c4C)ncc3c(N)c2F)cnc2c1NCCO2` [Example 2-30, N~2~-(1,5-dimethyl-1H-pyrazol-4-yl)-6-fluoro-7-(8-methyl-2,3-dihydro-1H-pyrido[2,3-b][1,4]oxazin-7-yl)quinazoline-2,5-diamine] has a pIC50 of 10.29. Work on `CCn1ncc(Nc2ncc3c(N)c(F)c(-c4cnc5c(c4C)NCCO5)cc3n2)c1F` [Example 2-38, N~2~-(1-ethyl-5-fluoro-1H-pyrazol-4-yl)-6-fluoro-7-(8-methyl-2,3-dihydro-1H-pyrido[2,3-b][1,4]oxazin-7-yl)quinazoline-2,5-diamine] yielded a pIC50 of 9.24. Work on `Cc1c(-c2cc3nc(Nc4cnn(C5CCN(C)CC5)c4)ncc3c(N)c2F)cnc2c1NCCO2` [Example 2-44, 6-fluoro-7-(8-methyl-2,3-dihydro-1H-pyrido[2,3-b][1,4]oxazin-7-yl)-N~2~-[1-(1-methylpiperidin-4-yl)-1H-pyrazol-4-yl]quinazoline-2,5-diamine] yielded a pIC50 of 10.35.
